Tests used:
Format in all cases: cell-based
[1] = test system: Multiple myeloma cell line MM.1S; experiment: Cell viability / proliferation inhibition IC50 in MM.1S cells, 72 h; conditions: Homo sapiens, MM1.S, 72 h treatment
Text: (§1) The tested cell line used were: Multiple myeloma cell line MM.1S, Mino (human mantle cell lymphoma cell), SR (anaplastic large cell lymphoma cell), PBMC (peripheral blood mononuclear cell), which were purchased from ATCC (American type Culture Collection). The medium was RPMI1640 supplemented with 10% FBS (fetal calf serum) and 1% Penicillin-Streptomycin. The cells used were identified as correct cells by STR cells, and were negative for mycoplasma through routine inspections.
(§2) IC50 values of the compounds of the present disclosure (including examples 1-11 compounds) were measured using Cell Titer Blue, Cell Titer GLO, or WST reagent from Promega Company. Assay details are as follows: Cells were seeded in 100 µL RPMI1640 complete medium containing serum at a density of 15,000 cells/well. After 24 h, the inoculated cells were treated with diluted commercial inhibitor and the compounds of the present disclosure to be tested after serial dilution. After the cells were treated with the compounds of the present disclosure to be tested (including examples 1-11 compounds) for 72 h, cell viability was determined after adding the cell viability detection kit listed above according to the reagent operating instructions. The negative control was DMSO, and the positive control was a commercial inhibitor, both of which were used to treat the cells through the same method as that of the compounds of the present disclosure. The growth inhibition of the compounds of the present disclosure on cells was plotted by Prism Graphpad software, and the IC50 values of the compounds of the present disclosure were calculated therefrom.
(§3) We tested the activities of the compounds of the present invention (including the compounds in Table 1 and Examples 1-11 compounds) in MM.1S cell, mantle cell lymphoma Mino cells, and anaplastic large cell lymphoma SR cells through a dose-dependent manner. These cells overexpressed IKZF⅓ and was not sensitive to existing immunomodulatory drugs. The cells were treated with the compounds of the present invention at 10 different successively decreasing concentrations (starting at the highest concentration of 10 µM; 5-fold serial dilutions) for 72 h, and then the cell viability determination was performed in accordance with CCK-8 reagent operating instructions. The experiment was repeated more than three times.

TNF-α = TNF-α inhibition in LPS-stimulated PBMC cells (ELISA); conditions: LPS 1 µg/ml, 18-20 h
Text: as §1
PBMC cells were cultured at 37° C. in 5% CO2 atmosphere, and then seeded in 96-well plates at 1×10^6 cells/well. […] Cells were pretreated with compounds and vehicle control (DMSO) for 1 h, then stimulated with lipopolysaccharide (LPS; 1 µg/ml), and continually cultured for 18-20 h. Then, the supernatant was collected, and tested for TNF-α level by ELISA kit. IC50 was then calculated by Graphpad Prism 7.0.

[2] = test system: Mino (human mantle cell lymphoma cell); experiment: Cell viability / proliferation inhibition IC50 in Mino lymphoma cells, 72 h, WST; conditions: Mino cell line, WST reagent
Text: as §1, §2, §3

IKZF3 = target: T1, IKZF3 (Homo sapiens, UniProt Q96SW2+Q9UKT9); experiment: Western blotting assay of IKZF3 degradation in MM.1S cells; conditions: 16 h, Western blot, FIG. 1
T1 construct: degradation of IKZF1 and IKZF3 proteins caused by the compounds of the present invention in multiple myeloma cells MM.1S; endogenous in cells; host or cells: MM.1S (ATCC)
T1 sequence (Q9UKT9 whole entry): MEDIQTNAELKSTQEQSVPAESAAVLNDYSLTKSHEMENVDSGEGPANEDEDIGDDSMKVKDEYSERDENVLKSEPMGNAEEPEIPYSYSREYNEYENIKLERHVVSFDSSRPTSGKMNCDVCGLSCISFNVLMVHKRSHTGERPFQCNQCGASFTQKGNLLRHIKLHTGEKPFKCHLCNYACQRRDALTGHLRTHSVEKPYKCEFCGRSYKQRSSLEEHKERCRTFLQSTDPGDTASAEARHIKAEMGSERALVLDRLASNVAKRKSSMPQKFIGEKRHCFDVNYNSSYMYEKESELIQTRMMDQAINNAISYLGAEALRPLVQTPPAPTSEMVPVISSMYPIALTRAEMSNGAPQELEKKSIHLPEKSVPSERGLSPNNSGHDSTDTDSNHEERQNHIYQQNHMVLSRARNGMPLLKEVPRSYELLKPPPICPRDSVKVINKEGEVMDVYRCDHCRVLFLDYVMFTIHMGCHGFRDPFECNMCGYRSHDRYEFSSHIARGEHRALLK
T1 sequence (Q96SW2 whole entry): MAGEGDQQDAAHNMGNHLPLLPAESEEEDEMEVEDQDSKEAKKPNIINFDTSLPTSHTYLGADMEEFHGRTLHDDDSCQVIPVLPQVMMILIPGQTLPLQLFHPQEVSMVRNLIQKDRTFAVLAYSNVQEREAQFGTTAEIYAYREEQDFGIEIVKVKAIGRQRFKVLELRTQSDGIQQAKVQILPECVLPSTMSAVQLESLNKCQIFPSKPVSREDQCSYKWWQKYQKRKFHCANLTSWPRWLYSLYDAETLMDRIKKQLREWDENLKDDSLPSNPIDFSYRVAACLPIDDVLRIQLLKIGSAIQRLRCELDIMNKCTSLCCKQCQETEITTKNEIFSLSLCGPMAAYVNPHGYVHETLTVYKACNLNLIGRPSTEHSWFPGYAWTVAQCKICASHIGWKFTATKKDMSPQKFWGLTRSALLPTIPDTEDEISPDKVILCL
T1 sequence (Q16531 whole entry partner): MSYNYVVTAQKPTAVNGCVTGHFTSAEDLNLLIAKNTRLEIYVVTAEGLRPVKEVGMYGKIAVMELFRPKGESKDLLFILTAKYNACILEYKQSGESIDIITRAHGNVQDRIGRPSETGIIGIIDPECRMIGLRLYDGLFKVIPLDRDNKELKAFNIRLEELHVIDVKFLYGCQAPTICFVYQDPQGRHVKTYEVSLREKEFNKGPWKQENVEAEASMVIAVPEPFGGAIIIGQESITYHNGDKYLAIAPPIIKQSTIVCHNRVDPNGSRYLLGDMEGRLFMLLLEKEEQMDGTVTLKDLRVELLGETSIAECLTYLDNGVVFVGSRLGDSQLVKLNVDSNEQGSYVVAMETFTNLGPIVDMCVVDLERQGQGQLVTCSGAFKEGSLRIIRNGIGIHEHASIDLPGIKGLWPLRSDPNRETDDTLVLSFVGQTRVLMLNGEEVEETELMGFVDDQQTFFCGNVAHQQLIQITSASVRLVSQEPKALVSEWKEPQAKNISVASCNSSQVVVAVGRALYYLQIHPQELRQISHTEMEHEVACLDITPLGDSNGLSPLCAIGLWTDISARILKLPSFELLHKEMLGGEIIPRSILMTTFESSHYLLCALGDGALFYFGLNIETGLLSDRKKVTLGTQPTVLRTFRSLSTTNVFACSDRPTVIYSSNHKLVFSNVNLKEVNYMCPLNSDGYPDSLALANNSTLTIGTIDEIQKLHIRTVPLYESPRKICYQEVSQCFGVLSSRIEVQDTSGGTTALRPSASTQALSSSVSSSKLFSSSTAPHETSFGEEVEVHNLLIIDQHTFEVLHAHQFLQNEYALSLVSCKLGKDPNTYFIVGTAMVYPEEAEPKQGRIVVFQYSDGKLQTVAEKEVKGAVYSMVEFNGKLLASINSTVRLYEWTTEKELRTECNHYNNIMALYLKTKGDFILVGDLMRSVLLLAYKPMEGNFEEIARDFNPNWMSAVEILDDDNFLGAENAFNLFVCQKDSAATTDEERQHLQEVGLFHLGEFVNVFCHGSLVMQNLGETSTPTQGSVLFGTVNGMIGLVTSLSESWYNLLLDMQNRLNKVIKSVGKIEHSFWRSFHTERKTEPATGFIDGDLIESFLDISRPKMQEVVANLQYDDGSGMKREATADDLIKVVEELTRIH
Experimental: Most antibodies were purchased from Cell Signaling Technology, including IKZF1 (#9034S), IKZF3(#15103S). GAPDH antibody was purchased from Abcam Company.
Tumor cells were plated in a 24-well plate at a cell seeding density of 3×10^5 cells/mL, with 1 mL culture media per well. After 24 h, the cells were treated with different concentrations of the compounds of the present disclosure. After 16 hours, the cells were collected, and washed with PBS. The supernatant was discarded, and the cells were placed on ice, and treated with RIPA protein lysate containing Halt protease and phosphatase inhibitor. The lysate was centrifuged at 10000 RPM at 4° C. for 10 minutes, and the supernatant was collected. An equal amount of proteins were loaded in 4X SDS sample solution, denatured at 95° C. for 5 minutes, and then freezed to -20° C. or directly subjected to protein electrophoresis (4-15% gradient gel, Bio-rad). […]
DC50 value (the drug concentration required for degrading proteins by 50%, abbreviated as DC50) reads method: comparing the gray values of the Western blotting bands for the drug treatment with the gray values of the Western blotting band for the DMSO control, and reading the drug concentration range corresponding to the gray value of the Western blotting bands for the drug treatment which is equal to half of the gray value of the Western blotting band for the DMSO control. […]

[3] = test system: SR (anaplastic large cell lymphoma cell); experiment: Cell viability / proliferation inhibition IC50 in SR lymphoma cells, 72 h, WST; conditions: SR cell line, WST reagent
Text: as §1, §2
We tested the activities of the compounds of the present invention (including the compounds in Table 1 and Examples 1-11 compounds) in MM.1S cell, mantle cell lymphoma Mino cells, and anaplastic large cell lymphoma SR cells through a dose-dependent manner. These cells overexpressed IKZF⅓ and was not sensitive to existing immunomodulatory drugs. […]

SMILES | IC50 [1] [nM] | IC50 (TNF-α) [nM] | other results
O=C1CCC(N2Cc3c(SCCn4cc(CN[C@]56CC7CC(C[C@@H](C7)C5)C6)nn4)cccc3C2=O)C(=O)N1 (some centres unmarked) [SIAIS287097, 3-(4-((2-(4-((adamantan-1-ylamino)methyl)-1H-1,2,3-triazol-1-yl)ethyl)thio)-1-oxoisoindolin-2-yl)piperidine-2,6-dione] |  | < 5 | 
Nc1cccc2c1C(=O)N(C1CCC(=O)NC1=O)C2=O (centres unmarked) [Pomalidomide, reference compound] |  |  | IC50 ([2]; Homo sapiens, MINO): 48 nM
O=C1CCC(N2Cc3c(SCc4csc(C(=O)NC56CC7CC(CC5C7)C6)n4)cccc3C2=O)C(=O)N1 (centres unmarked) [SIAIS355073, 4-(((2-(2,6-dioxopiperidin-3-yl)-1-oxoisoindolin-4-yl)thio)methyl)-N-(octahydro-2,5-methanopentalen-6a-yl)thiazole-2-carboxamide] | 0.51 ± 0.25 |  | 
O=C1CCC(N2C(=O)c3cccc(NCc4ccc(CNC56CC7CC(CC(C7)C5)C6)cn4)c3C2=O)C(=O)N1 (centres unmarked) [SIAIS355067, 4-(((5-((adamantan-1-ylamino)methyl)pyridin-2-yl)methyl)amino)-2-(2,6-dioxopiperidin-3-yl)isoindoline-1,3-dione] | 4.46 ± 0.18 | < 5 | 
Nc1cccc2c1CN(C1CCC(=O)NC1=O)C2=O (centres unmarked) [Lenalidomide, reference compound] |  | 10 to 100 | 

Further lines, with some results ahead:

IC50 [1] [nM] | IC50 (TNF-α) [nM] | SMILES | other results
0.16 ± 0.02 |  | O=C1CCC(N2Cc3c(SCc4nc(CN[C@H]5[C@H]6CC7CC(C6)C[C@@H]5C7)cs4)cccc3C2=O)C(=O)N1 (some centres unmarked) [SIAIS313185, 3-(4-(((4-((adamantan-2-ylamino)methyl)thiazol-2-yl)methyl)thio)-1-oxoisoindolin-2-yl)piperidine-2,6-dione] | 
0.06 ± 0.04 |  | O=C1CCC(N2Cc3c(SCc4ccc5cc(CN[C@]67CC8CC(C[C@@H](C8)C6)C7)ccc5n4)cccc3C2=O)C(=O)N1 (some centres unmarked) [SIAIS338048, 3-(4-(((6-((adamantan-1-ylamino)methyl)quinolin-2-yl)methyl)thio)-1-oxoisoindolin-2-yl)piperidine-2,6-dione] | 
0.09 ± 0.02 |  | O=C1CCC(N2Cc3c(SCc4ccc(CNC56CC7CC(CC(C7)C5)C6)o4)cccc3C2=O)C(=O)N1 (centres unmarked) [SIAIS313118, 3-(4-(((5-((adamantan-1-ylamino)methyl)furan-2-yl)methyl)thio)-1-oxoisoindolin-2-yl)piperidine-2,6-dione] | 
0.13 ± 0.03 | < 1 | O=C1CCC(N2Cc3c(SCc4csc(CNC56CC7CC(CC(C7)C5)C6)n4)cccc3C2=O)C(=O)N1 (centres unmarked) [SIAIS313160, 3-(4-(((2-((adamantan-1-ylamino)methyl)thiazol-4-yl)methyl)thio)-1-oxoisoindolin-2-yl)piperidine-2,6-dione] | 
0.02 | < 1 | O=C1CCC(N2Cc3c(SCc4cc5cc(C(=O)NC67CC8CC(CC(C8)C6)C7)ccc5s4)cccc3C2=O)C(=O)N1 (centres unmarked) [SIAIS338091, N-(adamantan-1-yl)-2-(((2-(2,6-dioxopiperidin-3-yl)-1-oxoisoindolin-4-yl)thio)methyl)benzo[b]thiophene-5-carboxamide] | 
0.003 | < 1 | O=C1CCC(N2Cc3c(SCc4cc5cc(CNC67CC8CC(CC(C8)C6)C7)ccc5o4)cccc3C2=O)C(=O)N1 (centres unmarked) [SIAIS287116, 3-(4-(((5-((adamantan-1-ylamino)methyl)benzofuran-2-yl)methyl)thio)-1-oxoisoindolin-2-yl)piperidine-2,6-dione] | IC50 ([2]; Homo sapiens, MINO): ~0.39 nM; IC50 [2]: 0.387 nM; concentration at which IKZF3 protein is significantly degraded (IKZF3): less than 0.01 nM; IC50 ([3]; Homo sapiens, SR): ~0.5 nM; IC50 [3]: 0.454 nM
0.181 |  | O=C1CCC(N2Cc3c(SCc4nc(CNC56CC7CC(CC(C7)C5)C6)cs4)cccc3C2=O)C(=O)N1 (centres unmarked) [SIAIS287129, 3-(4-(((4-((adamantan-1-ylamino)methyl)thiazol-2-yl)methyl)thio)-1-oxoisoindolin-2-yl)piperidine-2,6-dione] | IC50 ([2]; Homo sapiens, MINO): 2.59 nM; IC50 ([3]; Homo sapiens, SR): 4.02 nM

— patent US20230203022A1, “HETEROCYCLE AND GLUTARIMIDE SKELETON-BASED COMPOUND AND APPLICATIONS THEREOF” (Shanghaitech University, priority 2020, published 2023)
